The record followed here is patent US9650399B2, “Salicylic acid derivatives, pharmaceutically acceptable salt thereof, composition thereof and method of use thereof” (The Governing Council of the University of Toronto, priority 2012, dated 2017).

In one test the test system is BTSCs. The test can be described thus: alamarBlue cytotoxicity across BTSC lines. Format: cell-based, human. As for the experimental part: (§1) First, the library was screened for biological activity against a set of three representative GBM BTSCs derived from GBM patients, including the very aggressive GBM BTSC lines, BTSC73M, BTSC30M, BTSC68EF. Dissociated BTSC spheres were seeded at 1500 cells/96-well and treated with drug compound or vehicle (DMSO) one day after plating. Cell viability following drug treatment was assessed after 72 hrs using the ALAMARBLUE™ assay (Invitrogen) according to the manufacturer's instructions. All culture experiments were performed in triplicate with a minimum of three wells per condition.
(§2) BTSC spheres were dissociated to single cells with the enzyme Accumax (Innovative Technologies), seeded at 1500 cells/96-well and treated with drug or vehicle (DMSO) one day after plating. […] BTSC spheres were dissociated to single cells as above and plated in 96 well plates in triplicate at 3000 cells/96-well. […] Cell viability following drug treatment was assessed three days later using the ALAMARBLUE™ assay (Invitrogen) according to the manufacturer's instructions. All culture experiments were performed in triplicate with a minimum of three wells per condition.

Another test concerns BTSC73M. The test can be described thus: alamarBlue cell viability, BTSC 73M. The class given is cell-based, human. To be noted: alamarBlue; for IC50: Homo sapiens. As for the experimental part: as §1, §2
The test system of another test is BTSC68EF. The test can be described thus: alamarBlue cell viability, BTSC 68EF. The class given is cell-based, human. To be noted: Table 4 library screen, alamarBlue; for IC50: Homo sapiens, read-out: 68EF IC50. As for the experimental part: as §1, §2
A further test relates to BTSC30M. The test can be described thus: alamarBlue cell viability, BTSC 30M. Format: cell-based, human. Conditions: for IC50: Homo sapiens. The method, then:
as §1, §2

The test system of a further test is 147EF. The test can be described thus: alamarBlue cell viability, BTSC 147EF. The class given is cell-based, human. To be noted: Table 4 library screen; for IC50: Homo sapiens. From the text:
BTSC spheres were dissociated to single cells with the enzyme Accumax (Innovative Technologies), seeded at 1500 cells/96-well and treated with drug or vehicle (DMSO) one day after plating. Cytotoxicity studies were repeated independently at Sickkids Hospital using BTSC lines 25M, 67EF, 73EF, 84EF and 127EF. BTSC spheres were dissociated to single cells as above and plated in 96 well plates in triplicate at 3000 cells/96-well. In both sets of experiments drugs were used as serial dilutions within the range of 5 μM to 100 nM in the first set and 25 μM to 10 nM. Cell viability following drug treatment was assessed three days later using the ALAMARBLUE™ assay (Invitrogen) according to the manufacturer's instructions. All culture experiments were performed in triplicate with a minimum of three wells per condition. Table 4 below illustrates a screen of the library against a number of BTSCs using ALAMARBLUE™ assay.

For another test, the system named is Prostate (DU145). The test can be described thus: IC50 in prostate cancer cells. Conditions: Homo sapiens, DU-145; Table 6. The class given is cell-based.
Test [1] deals with Breast cancer cells (MDA-MB-468). The test can be described thus: IC50 in breast cancer cells. Conditions: Homo sapiens, Table 6. The class given is cell-based.
In test [2] the test system is leukemia cancer cells (AML-2). The test can be described thus: IC50 in leukemia cancer cells. The class given is cell-based. Conditions: Table 6.
The subject of another test is pSTAT3 (Y705). The test can be described thus: Western blot of phosphorylated STAT3 in BTSCs. Format: cell-based, human. To be noted: BTSC 73M, 1 μM inhibitor. From the text: Blots were stained with antibodies: phospho-Y705, phospho-S727, Bcl-xL, cyclin D1, PARP and Actin. Bands were visualized with the ECL PLUS™ Western Blotting Detection System and […]™ (Amersham). […] BTSC spheres were lysed in modified RIPA buffer supplemented with Complete Mini protease (Roche) and Halt phosphatase (Thermo Scientific) inhibitor cocktails. […] Blots were stained with the following antibodies: phospho-STAT3 Y705 (1:1000, Cell Signalling Technology), phospho-STAT3 S727 (1:1000, Cell Signalling Technology), STAT3 (1:1000, Santa Cruz Biotechnology), Bcl-xL (1:1000, Cell Signalling Technology), cyclin D1 (1:1000, Cell Signalling Technology) PARP (1:1000, Cell Signalling Technology) and Actin (1:2500, Santa Cruz Biotechnology). HRP conjugated secondary antibodies, goat anti-rabbit (Cell Signalling Technology) were used at 1:2000 and donkey anti-mouse, donkey anti-goat, and goat anti-rabbit, (Calbiochem) were used at 1:6000. Bands were visualized with the ECL Plus Western Blotting Detection System and Hyperfilm (Amersham).

The mark [3] stands for this setting: Table 4 library screen, alamarBlue.
[4] abbreviates: Table 4 library screen, read-out: 73M IC50.
[5] abbreviates: read-out: 30M IC50 (μM), Table 4 library screen, alamarBlue.
The mark [6] stands for this setting: read-out: IC50 BTSC 30M, Table 6, in parallel with other cancer lines.

Read-outs that look alike come from different tables or passages of the source.

Turning to `CN(CC(=O)N(Cc1ccc(C2CCCCC2)cc1)c1ccc(C(=O)O)c(O)c1)S(=O)(=O)c1c(F)c(F)c(F)c(F)c1F` [Compound 1, reference compound], the “activity against BTSCs (in words)” value in the test on BTSCs (cytotoxicity, alamarBlue) is reported as “low μM activity”.

Turning to `Cc1ccc(S(=O)(=O)N(C)CC(=O)N(Cc2ccc(C3CCCCC3)cc2)c2ccc([N+](=O)[O-])cc2)cc1` [Compound 9, N-(4-cyclohexylbenzyl)-2-(N,4-dimethylphenylsulfonamido)-N-(4-nitrophenyl)acetamide], the “73M IC50 (μM)” value in the test on BTSC73M (Table 4 library screen) is reported as “no effect”. In the test with BTSC68EF, the “68EF IC50 (μM)” value was “no effect”. In the test on BTSC30M (setting [3]), the “30M IC50 (μM)” value is “no effect”. In addition, the “147EF IC50 (μM)” value in the test with 147EF is “no effect”.

With `CN(CC(=O)N(Cc1ccc(C2CCCCC2)cc1)c1ccc(N)cc1)S(=O)(=O)c1c(F)c(F)c(F)c(F)c1F` [Compound 10, N-(4-aminophenyl)-N-(4-cyclohexylbenzyl)-2-(2,3,4,5,6-pentafluoro-N-methylphenylsulfonamido)acetamide], the IC50 in the test with BTSC73M (setting [4]) is 1.81 µM; in the test on BTSC68EF it was 1720 nM; in the test with BTSC30M (setting [5]), 1.33 µM; in the test with 147EF it was 1460 nM.

With `Cc1ccc(S(=O)(=O)N(C)CC(=O)N(Cc2ccc(C3CCCCC3)cc2)c2ccc(N)cc2)cc1` [Compound 11, N-(4-aminophenyl)-N-(4-cyclohexylbenzyl)-2-(N,4-dimethylphenylsulfonamido)acetamide], in the test with BTSC73M (Table 4 library screen), the “73M IC50 (μM)” value is listed as “no effect”. In the test with BTSC68EF, the “68EF IC50 (μM)” value was “no effect”. For the same compound, the “30M IC50 (μM)” value in the test with BTSC30M (setting [3]) is listed as “no effect”. The “147EF IC50 (μM)” value with 147EF was “no effect”.

Consider `CC(=O)Oc1cc(N(Cc2ccc(C3CCCCC3)cc2)C(=O)CN(C)S(=O)(=O)c2ccc(C)cc2)ccc1C(=O)O` [Compound 23, 2-acetoxy-4-(N-(4-cyclohexylbenzyl)-2-(N,4-dimethylphenylsulfonamido)acetamido)benzoic acid], for which the “73M IC50 (μM)” value in the test with BTSC73M (Table 4 library screen) is recorded as “no effect”. Besides, the “68EF IC50 (μM)” value in the test with BTSC68EF was “no effect”. The “30M IC50 (μM)” value in the test with BTSC30M (setting [3]) is “no effect”. For the same compound, the “147EF IC50 (μM)” value in the test with 147EF is reported as “no effect”.

Take `CN(CC(=O)N(Cc1ccc(C2CCCCC2)cc1)c1ccc(C(=O)O)c(F)c1)S(=O)(=O)c1c(F)c(F)c(F)c(F)c1F` [Compound 33, 4-(N-(4-cyclohexylbenzyl)-2-(2,3,4,5,6-pentafluoro-N-methylphenylsulfonamido)acetamido)-2-fluorobenzoic acid]: the IC50 with BTSC73M (setting [4]) was determined as 1.23 µM; with Prostate (DU145) it was 14200 nM; with BTSC68EF, 1460 nM; in the test with BTSC30M (setting [5]) it was 0.724 µM; in the test with BTSC30M (read-out: IC50 (nM) in BTSC 30M), 0.724 ± 0.013 µM; in the test on BTSC30M (setting [6]) it was 0.689 µM. Besides, the IC50 in the test on BTSCs (Homo sapiens, collective range, units given in the value, read-out: IC50 values of the top four ranked compounds against BTSCs) was 100 to 3800 nM; in [1] it was < 1000 nM; in test [2] it was < 1000 nM; with 147EF, 935 nM. For the same compound, in the test with BTSCs (Homo sapiens, collective range over 8 BTSC lines, read-out: EC50s across all 8 BTSCs evaluated), the EC50 is 66 to 1140 nM.

For the compound `Cc1ccc(S(=O)(=O)N(C)CC(=O)N(Cc2ccc(C3CCCCC3)cc2)c2ccc(C(=O)O)c(F)c2)cc1` [Compound 43, 4-(N-(4-cyclohexylbenzyl)-2-(N,4-dimethylphenylsulfonamido)acetamido)-2-fluorobenzoic acid], the “73M IC50 (μM)” value in the test on BTSC73M (Table 4 library screen) is listed as “no effect”. In the test with BTSC68EF, the “68EF IC50 (μM)” value is given as “no effect”. For the same compound, the “30M IC50 (μM)” value in the test on BTSC30M (setting [3]) is listed as “no effect”. In the test with 147EF, the “147EF IC50 (μM)” value was “no effect”.

For the compound `Cc1ccc(S(=O)(=O)N(C)CC(=O)N(Cc2ccc(C3CCCCC3)cc2)c2ccc(C(=O)NO)cc2)cc1` [Compound 44, 4-(N-(4-cyclohexylbenzyl)-2-(N,4-dimethylphenylsulfonamido)acetamido)-N-hydroxybenzamide], the “73M IC50 (μM)” value in the test on BTSC73M (Table 4 library screen) is recorded as “no effect”. Moreover, the IC50 stood at 1740 nM in the test with BTSC68EF and 2450 nM in the test with 147EF. Moreover, the “30M IC50 (μM)” value in the test with BTSC30M (setting [3]) is reported as “no effect”.

Turning to `Cc1ccc(S(=O)(=O)N(C)CC(=O)N(Cc2ccc(C3CCCCC3)cc2)c2ccc(O)cc2)cc1` [Compound 45, N-(4-cyclohexylbenzyl)-2-(N,4-dimethylphenylsulfonamido)-N-(4-hydroxyphenyl)acetamide], the “73M IC50 (μM)” value in the test with BTSC73M (Table 4 library screen) is “no effect”. In addition, the “68EF IC50 (μM)” value with BTSC68EF is listed as “no effect”. The “30M IC50 (μM)” value in the test with BTSC30M (setting [3]) is on record as “no effect”. The “147EF IC50 (μM)” value in the test on 147EF is on record as “no effect”.

As for `CC(=O)Oc1cc(N(Cc2ccc(C3CCCCC3)cc2)C(=O)CN(C)S(=O)(=O)c2c(F)c(F)c(F)c(F)c2F)ccc1C(=O)O` [SH-04-08, 2-acetoxy-4-(N-(4-cyclohexylbenzyl)-2-(2,3,4,5,6-pentafluoro-N-methylphenylsulfonamido)acetamido)benzoic acid], the IC50 with Prostate (DU145) is 12000 nM; in the test on BTSC30M (setting [6]) it was 0.9 µM; in test [1], < 1000 nM; in [2], < 1000 nM.

As for `C[C@H](NC(=O)/C(C#N)=C/c1cccc(Br)n1)c1ccccc1` [WP1066, reference compound], the IC50 in the test on BTSC73M (Table 2, BTSC 73M, 72 hrs, read-out: IC50 (μM) 73M) is 2.1 µM; in the test with BTSC30M (read-out: IC50 (μM) 30M, Table 2, BTSC 30M, alamarBlue, 72 hrs), 1.8 ± 0.22 µM. In addition, the “pSTAT3 suppression, comparative Western blot” value in the test on pSTAT3 (Y705) is given as “equipotent pSTAT3 suppression”.
